Laboratory results taken from ChEMBL document CHEMBL1909046, “DrugMatrix in vitro pharmacology data”.

Tests used:
[1] = target: T1, Alpha-1A adrenergic receptor (Rattus norvegicus, UniProt P43140); assay: DRUGMATRIX: Alpha-1A adrenergic receptor radioligand binding (ligand: prazosin); assay type: cell membranes, Wistar, Submaxillary gland, Membrane; conditions: Not Active = under 50% inhibition at 10 µM
T1 sequence (P43140 whole entry): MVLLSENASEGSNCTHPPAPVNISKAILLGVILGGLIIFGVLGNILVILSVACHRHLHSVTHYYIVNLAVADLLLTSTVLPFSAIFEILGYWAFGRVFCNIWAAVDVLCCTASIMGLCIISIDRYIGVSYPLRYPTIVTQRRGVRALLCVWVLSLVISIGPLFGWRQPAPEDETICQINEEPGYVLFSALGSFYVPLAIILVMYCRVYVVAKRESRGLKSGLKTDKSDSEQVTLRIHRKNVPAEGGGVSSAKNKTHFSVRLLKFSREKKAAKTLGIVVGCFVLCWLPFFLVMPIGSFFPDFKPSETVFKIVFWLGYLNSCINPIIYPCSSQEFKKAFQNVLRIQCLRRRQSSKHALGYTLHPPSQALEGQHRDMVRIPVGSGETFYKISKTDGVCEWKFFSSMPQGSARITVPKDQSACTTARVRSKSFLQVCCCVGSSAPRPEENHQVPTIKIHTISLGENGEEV

[2] = DRUGMATRIX: ATPase, Na+/K+ enzyme inhibition (substrate: ATP); assay type: tissue-based, Sus scrofa, Heart; conditions: Not Active = under 50% inhibition at 10 µM
[3] = DRUGMATRIX: beta-Lactamase enzyme inhibition (substrate: Nitrocefin); design: species or system Bacillus cereus; conditions: Not Active = under 50% inhibition at 10 µM
[4] = target: T2, Cholecystokinin receptor type A (Homo sapiens, UniProt P32238); assay type: cell membranes, Membrane; conditions: 1321-n1; also: in other assays of this panel Not Active means under 50% inhibition at 10 µM
T2 sequence (P32238 whole entry): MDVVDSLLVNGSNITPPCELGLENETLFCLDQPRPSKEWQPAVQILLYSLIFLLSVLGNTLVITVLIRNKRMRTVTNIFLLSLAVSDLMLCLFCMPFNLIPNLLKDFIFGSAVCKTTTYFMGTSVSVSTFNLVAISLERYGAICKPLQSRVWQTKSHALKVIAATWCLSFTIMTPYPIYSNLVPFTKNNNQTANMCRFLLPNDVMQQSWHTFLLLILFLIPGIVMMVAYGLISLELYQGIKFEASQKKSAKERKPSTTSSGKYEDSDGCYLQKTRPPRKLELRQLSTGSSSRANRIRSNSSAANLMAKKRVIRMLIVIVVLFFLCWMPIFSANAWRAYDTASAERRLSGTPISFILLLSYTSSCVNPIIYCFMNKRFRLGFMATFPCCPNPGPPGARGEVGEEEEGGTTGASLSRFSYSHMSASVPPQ

[5] = target: D(1A) dopamine receptor (Homo sapiens, UniProt P21728); assay: DRUGMATRIX: Dopamine D1 radioligand binding (ligand: [3H] SCH-23390); assay type: cell membranes, CHO, Membrane; conditions: cho; Not Active = under 50% inhibition at 10 µM
[6] = target: Sodium-dependent dopamine transporter (Homo sapiens, UniProt Q01959); assay: DRUGMATRIX: Dopamine Transporter radioligand binding (ligand: [125I] RTI-55); assay type: cell membranes, CHO-K1, Membrane; conditions: cho-k1; Not Active = under 50% inhibition at 10 µM
[7] = DRUGMATRIX: Phosphodiesterase PDE3 enzyme inhibition (substrate: [3H]cAMP + cAMP); assay type: tissue-based, Homo sapiens; conditions: platelet; Not Active = under 50% inhibition at 10 µM
[8] = target: Cytochrome P450 2E1 (Homo sapiens, UniProt P05181); conditions: bti-tn-5b1-4; also: in other assays of this panel Not Active means under 50% inhibition at 10 µM
Chain of Cytochrome P450 2E1 (P05181 whole entry): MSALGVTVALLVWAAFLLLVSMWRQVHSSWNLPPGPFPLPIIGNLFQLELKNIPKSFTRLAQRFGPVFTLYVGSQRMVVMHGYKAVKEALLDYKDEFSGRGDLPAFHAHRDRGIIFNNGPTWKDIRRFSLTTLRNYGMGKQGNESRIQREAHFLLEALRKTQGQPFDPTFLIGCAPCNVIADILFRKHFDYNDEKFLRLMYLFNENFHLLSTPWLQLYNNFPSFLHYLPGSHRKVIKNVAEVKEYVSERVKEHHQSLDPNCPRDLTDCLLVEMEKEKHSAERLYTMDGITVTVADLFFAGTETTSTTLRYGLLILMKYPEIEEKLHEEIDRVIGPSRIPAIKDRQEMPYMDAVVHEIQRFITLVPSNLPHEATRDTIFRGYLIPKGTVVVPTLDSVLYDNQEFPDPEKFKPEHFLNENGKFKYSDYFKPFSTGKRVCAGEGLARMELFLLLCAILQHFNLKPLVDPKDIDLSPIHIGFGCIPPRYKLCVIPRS

Chain of Sodium-dependent dopamine transporter (Q01959 whole entry): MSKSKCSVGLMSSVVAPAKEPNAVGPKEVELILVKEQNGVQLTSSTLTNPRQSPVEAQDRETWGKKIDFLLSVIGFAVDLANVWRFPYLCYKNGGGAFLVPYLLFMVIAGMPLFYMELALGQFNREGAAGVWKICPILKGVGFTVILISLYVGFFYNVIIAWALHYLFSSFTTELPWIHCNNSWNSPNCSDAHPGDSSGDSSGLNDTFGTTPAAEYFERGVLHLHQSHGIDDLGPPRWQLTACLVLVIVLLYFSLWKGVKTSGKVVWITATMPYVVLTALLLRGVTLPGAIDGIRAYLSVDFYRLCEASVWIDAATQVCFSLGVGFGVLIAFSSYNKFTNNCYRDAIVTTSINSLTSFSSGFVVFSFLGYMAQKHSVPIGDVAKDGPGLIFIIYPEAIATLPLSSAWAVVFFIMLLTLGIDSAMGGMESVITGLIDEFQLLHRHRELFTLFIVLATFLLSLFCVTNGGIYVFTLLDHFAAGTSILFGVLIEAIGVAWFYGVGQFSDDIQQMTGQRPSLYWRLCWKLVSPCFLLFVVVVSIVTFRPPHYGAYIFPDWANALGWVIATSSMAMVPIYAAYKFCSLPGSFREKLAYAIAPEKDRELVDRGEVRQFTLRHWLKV
Chain of D(1A) dopamine receptor (P21728 whole entry): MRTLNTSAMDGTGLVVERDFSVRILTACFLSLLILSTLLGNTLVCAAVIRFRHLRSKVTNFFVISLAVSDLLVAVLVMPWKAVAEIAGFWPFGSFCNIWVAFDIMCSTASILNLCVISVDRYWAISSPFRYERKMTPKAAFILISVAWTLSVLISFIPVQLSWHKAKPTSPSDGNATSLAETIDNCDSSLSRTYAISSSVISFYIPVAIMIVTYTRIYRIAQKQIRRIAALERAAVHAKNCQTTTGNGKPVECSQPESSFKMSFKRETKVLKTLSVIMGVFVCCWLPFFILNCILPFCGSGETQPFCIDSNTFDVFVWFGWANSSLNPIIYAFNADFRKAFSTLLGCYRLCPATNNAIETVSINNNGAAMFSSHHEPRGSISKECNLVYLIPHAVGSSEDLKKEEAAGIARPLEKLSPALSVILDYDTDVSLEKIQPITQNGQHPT

NC(=O)N1C(=O)/C(=C(\O)c2cccs2)c2cc(Cl)ccc21 [TENIDAP]
Not Active: IC50 [1] | IC50 [2] | Ki [2] | IC50 [3] | Ki [3] | IC50 [4] | IC50 [5] | IC50 [6] | IC50 [7] | Ki [7] | IC50 [8] | Ki [8]

CN(C/C=C/C#CC(C)(C)C)Cc1cccc2ccccc12 [TERBINAFINE]
Not Active: IC50 [1] | IC50 [2] | Ki [2] | IC50 [3] | Ki [3] | IC50 [4] | IC50 [5] | IC50 [6] | IC50 [7] | Ki [7] | IC50 [8] | Ki [8]

CCCCNc1ccc(C(=O)OCCN(C)C)cc1 [TETRACAINE]
Not Active: IC50 [1] | IC50 [2] | Ki [2] | IC50 [3] | Ki [3] | IC50 [4] | IC50 [5] | IC50 [6] | IC50 [7] | Ki [7] | IC50 [8] | Ki [8]

Cn1c(=O)c2nc[nH]c2n(C)c1=O.O [THEOPHYLLINE]
Not Active: IC50 [1] | IC50 [2] | Ki [2] | IC50 [3] | Ki [3] | IC50 [4] | IC50 [5] | IC50 [6] | IC50 [7] | Ki [7] | IC50 [8] | Ki [8]

CS(=O)(=O)c1ccc([C@@H](O)[C@@H](CO)NC(=O)C(Cl)Cl)cc1 [THIAMPHENICOL]
Not Active: IC50 [1] | IC50 [2] | Ki [2] | IC50 [3] | Ki [3] | IC50 [4] | IC50 [5] | IC50 [6] | IC50 [7] | Ki [7] | IC50 [8] | Ki [8]

CCN(CC)CCNC(=O)c1cc(S(C)(=O)=O)ccc1OC [TIAPRIDE]
Not Active: IC50 [1] | IC50 [2] | Ki [2] | IC50 [3] | Ki [3] | IC50 [4] | IC50 [5] | IC50 [6] | IC50 [7] | Ki [7] | IC50 [8] | Ki [8]

Clc1ccccc1CN1CCc2sccc2C1 [TICLOPIDINE]
Not Active: IC50 [1] | IC50 [2] | Ki [2] | IC50 [3] | Ki [3] | IC50 [4] | IC50 [5] | IC50 [6] | IC50 [7] | Ki [7] | IC50 [8] | Ki [8]

NC1CCN(c2nc3c(cc2F)c(=O)c(C(=O)O)cn3-c2ccc(F)cc2F)C1 (stereo unspecified) [TOSUFLOXACIN]
Not Active: IC50 [1] | IC50 [2] | Ki [2] | IC50 [3] | Ki [3] | IC50 [4] | IC50 [5] | IC50 [6] | IC50 [7] | Ki [7] | IC50 [8] | Ki [8]

O=C(Nc1ccc(Br)cc1)c1cc(Br)cc(Br)c1O [TRIBROMSALAN]
Not Active: IC50 [1] | IC50 [2] | Ki [2] | IC50 [3] | Ki [3] | IC50 [4] | IC50 [5] | IC50 [6] | IC50 [7] | Ki [7] | IC50 [8] | Ki [8]

CC(c1cc2ccccc2s1)N(O)C(N)=O (stereo unspecified) [ZILEUTON]
Not Active: IC50 [1] | IC50 [2] | Ki [2] | IC50 [3] | Ki [3] | IC50 [4] | IC50 [5] | IC50 [6] | IC50 [7] | Ki [7] | IC50 [8] | Ki [8]

MANGANESE CHLORIDE ANHYDROUS
Not Active: IC50 [1] | Ki [1] | IC50 [2] | Ki [2] | IC50 [3] | Ki [3] | IC50 [4] | Ki [4] | IC50 [5] | Ki [5] | IC50 [6] | Ki [6] | IC50 [7] | Ki [7] | IC50 [8] | Ki [8]
